Assay results from PubChem BioAssay (NCI).
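Tested at 5 concentrations; 48 h exposure; 96-well plates; endpoints linearly interpolated, else capped at highest concentration. The concentration for full growth arrest is given as TGI.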

Assays:
Assay in all cases: NCI-60 cell line screen, 48 h
NCI-H226 lung = tested on: NCI-H226 lung
T-47D breast = tested on: T-47D breast
HL-60(TB) leukemia = tested on: HL-60(TB) leukemia
HOP-62 NSCLC = tested on: HOP-62 NSCLC
HCC-2998 colon = tested on: HCC-2998 colon
MALME-3M melanoma = tested on: MALME-3M melanoma
SR leukemia = tested on: SR leukemia
OVCAR-5 ovarian = tested on: OVCAR-5 ovarian
RPMI-8226 leukemia = tested on: RPMI-8226 leukemia
COLO 205 colon = tested on: COLO 205 colon
NCI-H460 lung = tested on: NCI-H460 lung
MOLT-4 leukemia = tested on: MOLT-4 leukemia
A549 NSCLC = tested on: A549 NSCLC
SF-295 CNS = tested on: SF-295 CNS
HS 578T breast = tested on: HS 578T breast
MDA-MB-435 = tested on: MDA-MB-435
IGROV1 ovarian = tested on: IGROV1 ovarian

COC(=O)/C=C(\S/C=C(/c1ccccc1)N1CCn2c(C(=O)c3ccccc3)c(C(=O)OC)c(C(=O)OC)c21)C(=O)OC
TGI (NCI-H226 lung): > 10 µM | TGI (T-47D breast): 5.91 µM | TGI (HL-60(TB) leukemia): 2.6 µM | TGI (HOP-62 NSCLC): 5.02 µM | TGI (HCC-2998 colon): > 10 µM | TGI (MALME-3M melanoma): 4.81 µM | TGI (SR leukemia): > 10 µM | TGI (OVCAR-5 ovarian): > 10 µM | TGI (RPMI-8226 leukemia): 7.49 µM | TGI (COLO 205 colon): 3.46 µM | TGI (NCI-H460 lung): > 10 µM | TGI (MOLT-4 leukemia): 5.64 µM | TGI (A549 NSCLC): > 10 µM | TGI (SF-295 CNS): > 10 µM | TGI (HS 578T breast): > 10 µM | TGI (MDA-MB-435): > 10 µM | TGI (IGROV1 ovarian): > 10 µM

O=S(=O)(/N=C(\NO)Nc1ccc(Cl)cc1)c1ccccc1
TGI (NCI-H226 lung): > 100 µM | TGI (T-47D breast): > 83.3 µM | TGI (HL-60(TB) leukemia): > 33.7 µM | TGI (HOP-62 NSCLC): > 100 µM | TGI (HCC-2998 colon): 22 µM | TGI (MALME-3M melanoma): 22.5 µM | TGI (SR leukemia): 9.91 µM | TGI (OVCAR-5 ovarian): 56.6 µM | TGI (RPMI-8226 leukemia): 56.8 µM | TGI (COLO 205 colon): 51.5 µM | TGI (NCI-H460 lung): > 59.3 µM | TGI (MOLT-4 leukemia): > 56.6 µM | TGI (A549 NSCLC): > 100 µM | TGI (SF-295 CNS): > 100 µM | TGI (HS 578T breast): 34.6 µM | TGI (MDA-MB-435): > 64 µM | TGI (IGROV1 ovarian): 62.4 µM

Cc1ccc(S(=O)(=O)N/N=C2/CC3CCC4CC2CC34)cc1 (configuration not stated)
TGI (NCI-H226 lung): > 100 µM | TGI (T-47D breast): > 100 µM | TGI (HL-60(TB) leukemia): > 100 µM | TGI (HOP-62 NSCLC): > 100 µM | TGI (HCC-2998 colon): > 100 µM | TGI (MALME-3M melanoma): > 100 µM | TGI (SR leukemia): > 100 µM | TGI (OVCAR-5 ovarian): > 100 µM | TGI (RPMI-8226 leukemia): > 100 µM | TGI (COLO 205 colon): > 100 µM | TGI (NCI-H460 lung): > 100 µM | TGI (MOLT-4 leukemia): > 100 µM | TGI (A549 NSCLC): > 100 µM | TGI (SF-295 CNS): > 100 µM | TGI (HS 578T breast): > 100 µM | TGI (MDA-MB-435): > 100 µM | TGI (IGROV1 ovarian): > 100 µM

Nc1c2c(nc3ccccc13)-c1ccccc1NCCC2
TGI (NCI-H226 lung): > 100 µM | TGI (T-47D breast): 77.9 µM | TGI (HL-60(TB) leukemia): 47.5 µM | TGI (HOP-62 NSCLC): 54.2 µM | TGI (HCC-2998 colon): 27 µM | TGI (MALME-3M melanoma): 32.9 µM | TGI (SR leukemia): > 100 µM | TGI (OVCAR-5 ovarian): > 100 µM | TGI (RPMI-8226 leukemia): 58.5 µM | TGI (COLO 205 colon): 35.2 µM | TGI (NCI-H460 lung): 38 µM | TGI (MOLT-4 leukemia): > 100 µM | TGI (A549 NSCLC): > 100 µM | TGI (SF-295 CNS): 50.8 µM | TGI (HS 578T breast): > 100 µM | TGI (MDA-MB-435): 58.2 µM | TGI (IGROV1 ovarian): > 100 µM

CCOC(=O)CN1CC(C2=C(O)CN(CC(=O)OCC)C2=O)=CC1=O
TGI (NCI-H226 lung): > 100 µM | TGI (T-47D breast): > 100 µM | TGI (HL-60(TB) leukemia): > 100 µM | TGI (HOP-62 NSCLC): > 100 µM | TGI (HCC-2998 colon): > 100 µM | TGI (MALME-3M melanoma): > 100 µM | TGI (SR leukemia): > 100 µM | TGI (OVCAR-5 ovarian): > 100 µM | TGI (RPMI-8226 leukemia): > 100 µM | TGI (COLO 205 colon): > 100 µM | TGI (NCI-H460 lung): > 100 µM | TGI (MOLT-4 leukemia): > 100 µM | TGI (A549 NSCLC): > 100 µM | TGI (SF-295 CNS): > 100 µM | TGI (HS 578T breast): > 100 µM | TGI (MDA-MB-435): > 100 µM | TGI (IGROV1 ovarian): > 100 µM

CC1CN=C(c2cccc(-c3nc(-c4cccc(C5=NCC(C)N5)c4)nc(N(C)C)n3)c2)N1 (configuration not stated)
TGI (NCI-H226 lung): 6.47 µM | TGI (T-47D breast): 15.1 µM | TGI (HL-60(TB) leukemia): 4.81 µM | TGI (HOP-62 NSCLC): 5.9 µM | TGI (HCC-2998 colon): 2.39 µM | TGI (MALME-3M melanoma): 14.8 µM | TGI (SR leukemia): 1.96 µM | TGI (OVCAR-5 ovarian): 10.2 µM | TGI (RPMI-8226 leukemia): 6.87 µM | TGI (COLO 205 colon): 2.5 µM | TGI (NCI-H460 lung): 4.38 µM | TGI (MOLT-4 leukemia): 2.7 µM | TGI (A549 NSCLC): 9.27 µM | TGI (SF-295 CNS): 14.3 µM | TGI (HS 578T breast): 17.1 µM | TGI (MDA-MB-435): 2.61 µM | TGI (IGROV1 ovarian): 18.4 µM

Cc1cccc2c(N)c3cccc(C(=O)NCC[N+]4(Cc5ccc([N+](=O)[O-])cc5)CCOCC4)c3nc12
TGI (NCI-H226 lung): > 100 µM | TGI (T-47D breast): 98.3 µM | TGI (HL-60(TB) leukemia): 58.1 µM | TGI (HOP-62 NSCLC): > 100 µM | TGI (HCC-2998 colon): 60.5 µM | TGI (MALME-3M melanoma): > 100 µM | TGI (SR leukemia): 64.2 µM | TGI (OVCAR-5 ovarian): > 100 µM | TGI (RPMI-8226 leukemia): > 100 µM | TGI (COLO 205 colon): > 100 µM | TGI (NCI-H460 lung): > 62.5 µM | TGI (MOLT-4 leukemia): > 69.2 µM | TGI (A549 NSCLC): > 100 µM | TGI (SF-295 CNS): > 100 µM | TGI (HS 578T breast): > 77 µM | TGI (MDA-MB-435): > 100 µM | TGI (IGROV1 ovarian): > 100 µM

CCOC(=O)c1cc(C2CCN(c3ccccc3)C2=O)c(C(=O)/C=C(/C)N)[nH]1 (configuration not stated)
TGI (NCI-H226 lung): 80.4 µM | TGI (T-47D breast): > 100 µM | TGI (HL-60(TB) leukemia): > 100 µM | TGI (HOP-62 NSCLC): 46 µM | TGI (HCC-2998 colon): > 100 µM | TGI (MALME-3M melanoma): 35.6 µM | TGI (SR leukemia): > 100 µM | TGI (OVCAR-5 ovarian): > 100 µM | TGI (RPMI-8226 leukemia): > 100 µM | TGI (COLO 205 colon): > 100 µM | TGI (NCI-H460 lung): > 100 µM | TGI (MOLT-4 leukemia): > 100 µM | TGI (A549 NSCLC): > 100 µM | TGI (SF-295 CNS): 46.7 µM | TGI (HS 578T breast): 46.3 µM | TGI (MDA-MB-435): > 100 µM | TGI (IGROV1 ovarian): > 100 µM

CCOC(=O)c1c(N2CCCC2)ncn(C)c1=S
TGI (NCI-H226 lung): > 100 µM | TGI (T-47D breast): > 100 µM | TGI (HL-60(TB) leukemia): > 100 µM | TGI (HOP-62 NSCLC): > 100 µM | TGI (HCC-2998 colon): > 100 µM | TGI (MALME-3M melanoma): > 100 µM | TGI (SR leukemia): > 100 µM | TGI (OVCAR-5 ovarian): > 100 µM | TGI (RPMI-8226 leukemia): > 100 µM | TGI (COLO 205 colon): > 100 µM | TGI (NCI-H460 lung): > 100 µM | TGI (MOLT-4 leukemia): > 100 µM | TGI (A549 NSCLC): > 100 µM | TGI (SF-295 CNS): > 100 µM | TGI (HS 578T breast): > 100 µM | TGI (MDA-MB-435): > 100 µM | TGI (IGROV1 ovarian): > 100 µM

CC[P+]1(c2ccccc2)[C@@H](C)CC[C@@H]1C
TGI (NCI-H226 lung): > 100 µM | TGI (T-47D breast): > 100 µM | TGI (HL-60(TB) leukemia): > 100 µM | TGI (HOP-62 NSCLC): > 100 µM | TGI (HCC-2998 colon): > 100 µM | TGI (MALME-3M melanoma): > 100 µM | TGI (SR leukemia): > 100 µM | TGI (OVCAR-5 ovarian): > 100 µM | TGI (RPMI-8226 leukemia): > 100 µM | TGI (COLO 205 colon): > 100 µM | TGI (NCI-H460 lung): > 100 µM | TGI (MOLT-4 leukemia): > 100 µM | TGI (A549 NSCLC): > 100 µM | TGI (SF-295 CNS): > 100 µM | TGI (HS 578T breast): > 100 µM | TGI (MDA-MB-435): > 100 µM | TGI (IGROV1 ovarian): > 100 µM

CCCN1C(=O)/C(=C\c2ccc(OC)c(OC)c2)SC1=Nc1ccccc1
TGI (NCI-H226 lung): > 100 µM | TGI (T-47D breast): > 100 µM | TGI (HL-60(TB) leukemia): > 100 µM | TGI (HOP-62 NSCLC): 98.5 µM | TGI (HCC-2998 colon): > 100 µM | TGI (MALME-3M melanoma): > 100 µM | TGI (SR leukemia): > 100 µM | TGI (OVCAR-5 ovarian): > 100 µM | TGI (RPMI-8226 leukemia): > 100 µM | TGI (COLO 205 colon): > 100 µM | TGI (NCI-H460 lung): > 100 µM | TGI (MOLT-4 leukemia): > 100 µM | TGI (A549 NSCLC): > 100 µM | TGI (SF-295 CNS): > 100 µM | TGI (HS 578T breast): > 100 µM | TGI (MDA-MB-435): > 100 µM | TGI (IGROV1 ovarian): > 100 µM
